In patent publication US20010044449A1, “REMEDIES FOR DRUG ADDICTION” (priority 1997, published 2001):
Where a name gives a salt, the structure may show the parent alone. Marks after values point to notes of the source that are not given here.

How the values were obtained:
[1] = tested on: Sprague Dawley strain (SD strain) male rats; assay: Conditioned place preference (CPP) method, psychic dependence induced by morphine; details: for Psychic dependence and aversion of compound alone (period in drug- or solvent-conditioned box): compound alone vs solvent control group
[2] = tested on: Sprague Dawley strain (SD strain) male rats; assay: Conditioned place preference (CPP) method, psychic dependence induced by cocaine
[3] = tested on: rats with nicotine dependence; details: Malin et al. 1993; cited from earlier work
chronic smokers = details: for three hours, double blind and cross-over test vs placebo; Karras et al. 1980; cited from earlier work
ddY strain male mouse = assay: Naloxone-induced withdrawal syndrome in morphine-dependent mouse (physical dependence); assay type: in vivo; details: for Blepharoptosis: numbers of mouse manifesting withdrawal syndrome/numbers of total mouse / Diarrhea: numbers of mouse manifesting withdrawal syndrome/numbers of total mouse / Fore paw tremor: numbers of mouse manifesting withdrawal syndrome/numbers of total mouse / Jumping: numbers of mouse manifesting withdrawal syndrome/numbers of total mouse / Rearing: numbers of mouse manifesting withdrawal syndrome/numbers of total mouse / Wobbling: numbers of mouse manifesting withdrawal syndrome/numbers of total mouse: naloxone 3 mg/kg
[4] = tested on: dopamine release in the nucleus accumbens; assay: High K+ stimulated dopamine release from nucleus accumbens slices (HPLC-ECD); assay type: cell-based; details: rat nucleus accumbens slices, 20 mM high K+ stimulation; FIG. 11
Rats = assay: Cocaine drug discrimination test (feeding behavior with lever pressing); assay type: in vivo, rat
SD strain male rats = assay: Mecamylamine-induced nicotine withdrawal aversion (CPP operant boxes); assay type: in vivo, rat
Method: Animals used were SD strain male rats in this experiment. Experiments used were CPP operant boxes. Experiments were performed by using an aversive model in a nicotine withdrawal syndrome induced by mecamylamine, that is, a nicotine receptor antagonist. (Tsutomu Suzuki, Molecular Medicine, 32, 140 (1995); Suzuki, T. et al., Eur. J. Pharm., 314, 281 (1996); Maldonado, R. et al., J. Pharmacol. Exp. Ther., 261, 669 (1992)). Mini-osmotic pump (Alzet 2001) injected with nicotine (1 μl/hr, for seven days) was implanted under dorsal skin of the rats. An aqueous solution at a concentration of 121.4 mg/ ml was prepared so that a nicotine dose was adjusted to 10 mg/kg/day. Then, the aqueous solution was filled into the mini-osmotic pump. The rats were given conditioning training by the following counter-balance method. In the morning of the seventh day after the implantation of the mini-osmotic pump, mecamylamine (1 mg/ml), that is, nicotine receptor antagonist or physiological saline was subcutaneously injected. Then, the rats were placed in one compartment for 60 minutes. […] The periods in which the rats remained in each compartment colored white or black were measured for 15 minutes.

[5] = morphine 3 mg/kg s.c. in combination with compound 0.1 mg/kg s.c., FIGS. 1 and 2
[6] = cocaine 10 mg/kg i.p. in combination with compound 0.1 mg/kg s.c., FIGS. 5 and 6
[7] = Compound 3 0.003 mg/kg s.c. with morphine
[8] = Compound 3 0.01 mg/kg s.c. with morphine
[9] = Compound 3 0.03 mg/kg s.c. with morphine

Cc1cccc(/C=C/C(=O)N(C)[C@@H]2CC[C@@]3(O)[C@H]4Cc5ccc(O)c6c5[C@@]3(CCN4CC3CC3)[C@H]2O6)c1 [Compound 2, 17-(cyclopropylmethyl)-3,14β-dihydroxy-4,5α-epoxy-6β-(N-methyl-3-methylcinnamide) morphinan hydrochloride]
Psychic dependence and aversion of compound alone (period in drug- or solvent-conditioned box) [1]: did not develop psychic dependence and aversion
Development of drug dependence caused by morphine (period rats remained in drug-conditioned box) [1, 5]: inhibited the development of drug dependence caused by morphine

Cc1cccc(C#CC(=O)N(C)[C@@H]2CC[C@@]3(O)[C@H]4Cc5ccc(O)c6c5[C@@]3(CCN4CC3CC3)[C@H]2O6)c1 [Compound 4, 17-(cyclopropylmethyl)-3,14β-dihydroxy-4,5α-epoxy-6β-[N-methyl-3-(3-methylphenyl)propiolamide] morphinan hydrochloride]
Development of drug dependence induced by cocaine (period rats remained in drug-conditioned box) [2, 6]: inhibited the development of drug dependence induced by cocaine
Psychic dependence and aversion of compound alone (period in drug- or solvent-conditioned box) [2]: did not produce psychic dependence and aversion

C=CCN1CC[C@]23c4c5ccc(O)c4O[C@H]2C(=O)CC[C@@]3(O)[C@H]1C5 [naloxone]
Withdrawal syndrome in rats with nicotine dependence [3]: accelerates a withdrawal syndrome
Intake of tobacco of chronic smokers (chronic smokers): effective for a reduction in intake of tobacco

CN1CC[C@]23c4c5ccc(O)c4O[C@H]2[C@@H](O)C=C[C@H]3[C@H]1C5 [morphine, reference compound]
Withdrawal syndrome after naloxone administration (ddY strain male mouse; morphine alone 8 to 45 mg/kg s.c. twice a day for five days, naloxone 3 mg/kg s.c.): withdrawal syndrome was recognized
Withdrawal syndrome in rats with nicotine dependence [3]: inhibits the withdrawal syndrome

CN(C(=O)C#Cc1ccc(C(F)(F)F)cc1)[C@@H]1CC[C@@]2(O)[C@H]3Cc4ccc(O)c5c4[C@@]2(CCN3CC2CC2)[C@H]1O5.O=C(O)/C=C\C(=O)O [Compound 1, 17-(cyclopropylmethyl)-3,14β-dihydroxy-4,5α-epoxy-6β-[N-methyl-3-(4-trifluoromethylphenyl)propiolamide] morphinan maleate]
Development of drug dependence induced by cocaine (period rats remained in drug-conditioned box) ([2]; cocaine 4 mg/kg i.p. in combination with Compound 1 0.2 mg/kg i.p., FIG. 7): inhibited the development of drug dependence induced by cocaine
Psychic dependence and aversion of compound alone (period in drug- or solvent-conditioned box) [2]: did not produce psychic dependence and aversion
Psychic dependence and aversion of compound alone (period in drug- or solvent-conditioned box) [1]: did not develop psychic dependence and aversion
Development of drug dependence caused by morphine (period rats remained in drug-conditioned box) [1, 5]: inhibited the development of drug dependence caused by morphine

CN(C(=O)/C=C/c1ccoc1)[C@@H]1CC[C@@]2(O)[C@H]3Cc4ccc(O)c5c4[C@@]2(CCN3CC2CC2)[C@H]1O5 [Compound 3, 17-(cyclopropylmethyl)-3,14β-dihydroxy-4,5α-epoxy-6β-[N-methyl-trans-3-(3-furyl)acrylamide] morphinan hydrochloride]
Dopamine release in the nucleus accumbens [4]: inhibited dopamine release in the nucleus accumbens
Incidence rates of jumping, shaking, and diarrhea (ddY strain male mouse; 0.03 mg/kg, compared with morphine alone group): significantly decreased
Body weight reduction (withdrawal) (ddY strain male mouse; 0.01 or 0.03 mg/kg, compared with morphine alone group, FIG. 4): significant suppression of body weight reduction
Blepharoptosis: numbers of mouse manifesting withdrawal syndrome/numbers of total mouse (ddY strain male mouse; [7]): 10/10
Diarrhea: numbers of mouse manifesting withdrawal syndrome/numbers of total mouse (ddY strain male mouse; [7]): 7/10
Fore paw tremor: numbers of mouse manifesting withdrawal syndrome/numbers of total mouse (ddY strain male mouse; [7]): 9/10
Jumping: numbers of mouse manifesting withdrawal syndrome/numbers of total mouse (ddY strain male mouse; [7]): 3/10
Rearing: numbers of mouse manifesting withdrawal syndrome/numbers of total mouse (ddY strain male mouse; [7]): 10/10
Wobbling: numbers of mouse manifesting withdrawal syndrome/numbers of total mouse (ddY strain male mouse; [7]): 7/10
Blepharoptosis: numbers of mouse manifesting withdrawal syndrome/numbers of total mouse (ddY strain male mouse; [8]): 10/10
Diarrhea: numbers of mouse manifesting withdrawal syndrome/numbers of total mouse (ddY strain male mouse; [8]): 6/10
Fore paw tremor: numbers of mouse manifesting withdrawal syndrome/numbers of total mouse (ddY strain male mouse; [8]): 10/10
Jumping: numbers of mouse manifesting withdrawal syndrome/numbers of total mouse (ddY strain male mouse; [8]): 5/10
Rearing: numbers of mouse manifesting withdrawal syndrome/numbers of total mouse (ddY strain male mouse; [8]): 7/10
Wobbling: numbers of mouse manifesting withdrawal syndrome/numbers of total mouse (ddY strain male mouse; [8]): 5/10
Blepharoptosis: numbers of mouse manifesting withdrawal syndrome/numbers of total mouse (ddY strain male mouse; [9]): 10/10
Diarrhea: numbers of mouse manifesting withdrawal syndrome/numbers of total mouse (ddY strain male mouse; [9]): 3/10*
Fore paw tremor: numbers of mouse manifesting withdrawal syndrome/numbers of total mouse (ddY strain male mouse; [9]): 7/10
Jumping: numbers of mouse manifesting withdrawal syndrome/numbers of total mouse (ddY strain male mouse; [9]): 3/10*
Rearing: numbers of mouse manifesting withdrawal syndrome/numbers of total mouse (ddY strain male mouse; [9]): 8/10
Wobbling: numbers of mouse manifesting withdrawal syndrome/numbers of total mouse (ddY strain male mouse; [9]): 3/10*
Naloxone-induced withdrawal syndrome (ddY strain male mouse; simultaneous administration with morphine, 0.003-0.03 mg/kg s.c.): relieved by the simultaneous administration of Compound 3 in a dose-dependent manner
Psychic dependence and aversion of compound alone (period in drug- or solvent-conditioned box) [1]: did not produce psychic dependence and aversion
Development of drug dependence caused by morphine (period rats remained in drug-conditioned box) ([1]; morphine 5 mg/kg s.c. in combination with Compound 3 0.1 or 0.03 mg/kg s.c., FIG. 3): inhibited the development of drug dependence caused by morphine
Rates of feeding behavior with lever pressing (cocaine discrimination) (Rats; Compound 3 10 μg/kg with cocaine 1.25, 2.5, or 5 mg/kg vs saline + cocaine, FIG. 8): significantly decreased
Inhibitory effect of cocaine discrimination (Rats; Compound 3 20 μg/kg with cocaine, compared with 10 μg/kg): enhanced
Aversive effect induced by mecamylamine (nicotine withdrawal) (SD strain male rats; pretreatment 30 μg/kg vs physiological saline pretreatment): significantly inhibited the aversive effect
Aversive effect induced by mecamylamine (nicotine withdrawal) (SD strain male rats; pretreatment 10 or 30 μg/kg s.c., 30 minutes before mecamylamine, FIG. 10): inhibited by the pretreatment with Compound 3 (10 or 30 μg/kg) in a dose dependent manner

Oc1ccc2c3c1O[C@H]1c4[nH]c5c(c4C[C@@]4(O)[C@@H](C2)N(CC2CC2)CC[C@]314)C[C@@]1(O)[C@H]2Cc3ccc(O)c4c3[C@@]1(CCN2CC1CC1)[C@H]5O4 [nor-BNI, norbinaltorphimine, reference compound]
Antagonism of the inhibitory effect caused by Compound 3 ([1]; pretreatment 3 mg/kg, morphine 5 mg/kg s.c. + Compound 3 0.03 mg/kg s.c.): significantly antagonized
Antagonism of the inhibitory effect of cocaine discrimination of Compound 3 (Rats; nor-BNI pretreatment, Compound 3 0.02 mg/kg + cocaine, FIG. 9): antagonized

17-(cyclopropylmethyl)-3,14β-dihydroxy-4,5α-epoxy-6β-[N-methyl-trans-3-(methoxycinnamide) morphinan tartrate [Compound 5]
Development of drug dependence induced by cocaine (period rats remained in drug-conditioned box) [2, 6]: inhibited the development of drug dependence induced by cocaine
Psychic dependence and aversion of compound alone (period in drug- or solvent-conditioned box) [2]: did not produce psychic dependence and aversion
